Format in all cases: biochemical
In test [1] the target is Human PDE4A (Homo sapiens (Human), UniProt P27815). The test can be described thus: PDE4A Scintillation Proximity Assay (SPA), inhibition of enzyme activity. The note with it: human recombinant enzyme, 1 μM cAMP substrate, 30 min at 25° C., geometric mean of 2-9 determinations unless otherwise indicated, read-out: Human PDE4A FL. In general terms: In a scintillation proximity assay essentially only radioactivity close to the scintillant gives light.

Test [2] has as its target Human PDE4C (Homo sapiens (Human), UniProt Q08493). The test can be described thus: PDE4C Scintillation Proximity Assay (SPA), inhibition of enzyme activity. The note with it: human recombinant enzyme, 1 μM cAMP substrate, 30 min at 25° C., geometric mean of 2-9 determinations unless otherwise indicated, read-out: Human PDE4C FL.
Description: The PDE4A3, PDE4B1, PDE4C1 and PDE4D3 assays use the Scintillation Proximity Assay (SPA) technology to measure the inhibition of human recombinant PDE4A1, PDE4B3, PDE4C1, and PDE4D3 enzyme activity by compounds in vitro. The PDE4A1, PDE4B3, PDE4C1, and PDE4D3 assays are run in parallel using identical parameters, except for the concentration of enzyme (80 pM PDE4A3, 40 pM PDE4B3, 40 pM PDE4C1 and 10 pM PDE4D). […] Reactions are incubated for 30 min at 25° C. The addition of 20 uL of 8 mg/ml yitrium silicate SPA beads (Perkin Elmer) stops the reaction. The plates are sealed (TopSeal, Perkin Elmer) and the beads are allowed to settle for 8 hrs, after which they are read on the Trilux Microbeta overnight.
Test [3] deals with Human PDE4D (Homo sapiens (Human), UniProt Q08499). The test can be described thus: PDE4D Scintillation Proximity Assay (SPA), inhibition of enzyme activity. As to conditions: human recombinant enzyme, 1 μM cAMP substrate, 30 min at 25° C., geometric mean of 2-9 determinations unless otherwise indicated, read-out: Human PDE4D FL.
Human PDE4D, sequence (Q08499 186-808): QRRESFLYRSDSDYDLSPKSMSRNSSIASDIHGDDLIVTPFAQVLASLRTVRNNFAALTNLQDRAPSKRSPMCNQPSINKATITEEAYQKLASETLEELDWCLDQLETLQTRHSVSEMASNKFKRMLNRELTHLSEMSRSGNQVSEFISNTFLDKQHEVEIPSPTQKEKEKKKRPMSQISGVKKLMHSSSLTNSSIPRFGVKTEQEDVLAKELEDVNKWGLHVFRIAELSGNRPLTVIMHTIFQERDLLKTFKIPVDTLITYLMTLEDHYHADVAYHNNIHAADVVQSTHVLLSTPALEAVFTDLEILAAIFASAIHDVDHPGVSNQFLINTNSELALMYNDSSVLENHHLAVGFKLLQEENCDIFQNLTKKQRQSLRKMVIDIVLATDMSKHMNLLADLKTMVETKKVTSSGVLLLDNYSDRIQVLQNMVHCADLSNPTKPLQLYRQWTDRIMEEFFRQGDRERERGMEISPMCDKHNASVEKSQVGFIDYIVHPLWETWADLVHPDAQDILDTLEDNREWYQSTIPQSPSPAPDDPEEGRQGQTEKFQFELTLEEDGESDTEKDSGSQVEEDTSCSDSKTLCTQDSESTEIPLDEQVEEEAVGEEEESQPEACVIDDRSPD

Human PDE4A, sequence (P27815 other isoform, or with tags, fused parts or gaps): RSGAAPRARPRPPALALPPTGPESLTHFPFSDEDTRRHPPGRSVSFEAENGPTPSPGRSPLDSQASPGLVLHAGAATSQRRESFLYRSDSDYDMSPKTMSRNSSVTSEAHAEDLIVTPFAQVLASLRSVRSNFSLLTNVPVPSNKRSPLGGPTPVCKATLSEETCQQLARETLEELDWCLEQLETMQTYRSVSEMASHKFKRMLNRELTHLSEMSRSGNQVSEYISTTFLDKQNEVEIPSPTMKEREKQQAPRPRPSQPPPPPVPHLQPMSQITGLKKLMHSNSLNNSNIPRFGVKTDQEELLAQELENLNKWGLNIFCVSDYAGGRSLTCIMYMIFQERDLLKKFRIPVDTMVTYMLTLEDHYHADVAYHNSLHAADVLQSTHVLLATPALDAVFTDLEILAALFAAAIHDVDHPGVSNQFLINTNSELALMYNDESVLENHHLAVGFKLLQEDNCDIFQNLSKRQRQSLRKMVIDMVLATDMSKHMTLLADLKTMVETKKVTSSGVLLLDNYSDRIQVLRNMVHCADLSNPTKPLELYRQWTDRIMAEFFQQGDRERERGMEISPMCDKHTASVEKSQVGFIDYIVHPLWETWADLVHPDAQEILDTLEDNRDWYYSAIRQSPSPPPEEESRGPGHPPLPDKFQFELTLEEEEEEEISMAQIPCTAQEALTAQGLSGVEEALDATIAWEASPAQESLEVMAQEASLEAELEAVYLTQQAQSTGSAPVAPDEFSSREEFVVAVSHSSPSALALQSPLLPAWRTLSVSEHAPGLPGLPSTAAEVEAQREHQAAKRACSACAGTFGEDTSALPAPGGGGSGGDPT
Human PDE4C, sequence (Q08493 2-712): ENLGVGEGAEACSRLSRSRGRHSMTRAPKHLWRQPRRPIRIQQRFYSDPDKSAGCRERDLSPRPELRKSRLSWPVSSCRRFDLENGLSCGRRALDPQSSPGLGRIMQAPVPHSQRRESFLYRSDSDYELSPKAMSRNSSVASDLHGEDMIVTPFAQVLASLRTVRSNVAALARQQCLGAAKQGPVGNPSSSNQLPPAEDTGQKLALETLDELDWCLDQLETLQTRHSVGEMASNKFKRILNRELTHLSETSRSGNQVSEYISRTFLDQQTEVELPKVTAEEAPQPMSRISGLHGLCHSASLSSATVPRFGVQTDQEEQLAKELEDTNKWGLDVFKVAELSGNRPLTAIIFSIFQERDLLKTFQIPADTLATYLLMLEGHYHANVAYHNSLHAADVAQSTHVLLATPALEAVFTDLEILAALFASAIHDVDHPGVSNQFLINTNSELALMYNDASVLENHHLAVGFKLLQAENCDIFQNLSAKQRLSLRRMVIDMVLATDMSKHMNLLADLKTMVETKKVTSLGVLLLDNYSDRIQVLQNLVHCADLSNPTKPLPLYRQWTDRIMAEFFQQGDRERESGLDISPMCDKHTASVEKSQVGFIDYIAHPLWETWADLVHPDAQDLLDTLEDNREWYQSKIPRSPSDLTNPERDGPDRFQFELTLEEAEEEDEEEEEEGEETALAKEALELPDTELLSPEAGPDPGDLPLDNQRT

Consider `O=C(c1nc2cccnn2c1-c1ccnc(OC(F)F)c1)N1CCC1` [Example 76, azetidin-1-yl{3-[2-(difluoromethoxy)pyridin-4-yl]imidazo[1,2-b]pyridazin-2-yl}methanone], for which the IC50 in test [1] is 7.09 nM; in test [2] it was 22.2 nM; in test [3], 94.5 nM.
Taken in the same sequence, the figures for `O=C(c1nc2cccnn2c1-c1ccc2ncoc2c1)N1CCC1` [Example 77, azetidin-1-yl[3-(1,3-benzoxazol-6-yl)imidazo[1,2-b]pyridazin-2-yl]methanone] were 46.1 nM, 186 nM and over 16600 nM.
Regarding `N#Cc1ccc(-c2c(C(=O)NC3CC3)nc3cccnn23)c(F)c1` [Example 79, 3-(4-cyano-2-fluorophenyl)-N-cyclopropylimidazo[1,2-b]pyridazine-2-carboxamide], the IC50 in test [1] was 48.8 nM; in test [2], 297 nM; in test [3], over 25400 nM.
The corresponding values for `O=C(c1nc2cccnn2c1-c1ccc(Cl)c(Cl)c1)N1CCC1` [Example 83, azetidin-1-yl[3-(3,4-dichlorophenyl)imidazo[1,2-b]pyridazin-2-yl]methanone] are 6.21 nM, 40 nM and 495 nM.
The corresponding values for `CCNC(=O)c1nc2cccnn2c1-c1ccc(Cl)cc1` [Example 85, 3-(4-chlorophenyl)-N-ethylimidazo[1,2-b]pyridazine-2-carboxamide] are 25.6 nM, 47.2 nM and 6700 nM.
As to `O=C(NC1CC1)c1nc2cccnn2c1-c1ccc(OC(F)F)nc1` [Example 87, N-cyclopropyl-3-[6-(difluoromethoxy)pyridin-3-yl]imidazo[1,2-b]pyridazine-2-carboxamide], the IC50 in test [1] is 240 nM; in test [2] it was 397 nM; in test [3], 6790 nM.
As to `O=C(NC1CC1)c1nc2cccnn2c1-c1ccc2ncoc2c1` [Example 88, 3-(1,3-benzoxazol-6-yl)-N-cyclopropylimidazo[1,2-b]pyridazine-2-carboxamide], the figures for the IC50 in test [1], in test [2] and in test [3] were 45 nM, 136 nM and 10400 nM, respectively.
Regarding `Cc1cc2ncnn2cc1-c1c(C(=O)NC2CC2)nc2cccnn12` [Example 89, N-cyclopropyl-3-(7-methyl[1,2,4]triazolo[1,5-a]pyridin-6-yl)imidazo[1,2-b]pyridazine-2-carboxamide], the IC50 in test [1] was 829 nM; in test [2], 3760 nM; in test [3], over 17200 nM.
The corresponding values for `N#Cc1ccc(-c2c(C(=O)NC3CC3)nc3cccnn23)cc1F` [Example 90, 3-(4-cyano-3-fluorophenyl)-N-cyclopropylimidazo[1,2-b]pyridazine-2-carboxamide] are 21.4 nM, 25.5 nM and 2620 nM.
In the case of `N#Cc1cc(F)c(-c2c(C(=O)NC3CC3)nc3cccnn23)cc1F` [Example 92, 3-(4-cyano-2,5-difluorophenyl)-N-cyclopropylimidazo[1,2-b]pyridazine-2-carboxamide], the values for the IC50 in test [1], in test [2] and in test [3] were 5.52 nM, 42.5 nM and over 1440 nM, respectively.
Taken in the same sequence, the figures for `CNC(=O)c1nc2cccnn2c1-c1cc(F)c(Cl)cc1F` [Example 93, 3-(4-chloro-2,5-difluorophenyl)-N-methylimidazo[1,2-b]pyridazine-2-carboxamide] were 62.9 nM, 134 nM and 4110 nM.
As to `CNC(=O)c1nc2cccnn2c1-c1ccc(Cl)c(F)c1` [Example 94, 3-(4-chloro-3-fluorophenyl)-N-methylimidazo[1,2-b]pyridazine-2-carboxamide], the IC50 in test [1] stood at 24.9 nM; in test [2], 65 nM; in test [3] it was 5380 nM.
The corresponding values for `CCNC(=O)c1nc2cccnn2c1-c1cc(F)c(Cl)cc1F` [Example 96, 3-(4-chloro-2,5-difluorophenyl)-N-ethylimidazo[1,2-b]pyridazine-2-carboxamide] are 4.58 nM, 29.2 nM and 908 nM.
Take `CCNC(=O)c1nc2cccnn2c1-c1cc(F)c(C#N)cc1C` [Example 98, 3-(4-cyano-5-fluoro-2-methylphenyl)-N-ethylimidazo[1,2-b]pyridazine-2-carboxamide]: the IC50 in test [1] was found to be 26.6 nM; in test [2] it was 107 nM; in test [3], 3320 nM.
In the case of `O=C(Nc1ncccn1)c1nc2cccnn2c1-c1ccc(Cl)cc1` [Example 101, 3-(4-chlorophenyl)-N-(pyrimidin-2-yl)imidazo[1,2-b]pyridazine-2-carboxamide], the IC50 in test [1] is 268 nM; in test [2] it was 1180 nM; in test [3], over 25900 nM.
Taken in the same sequence, the figures for `O=C(NCC1CC1)c1nc2cccnn2c1-c1ccc(Cl)cc1` [Example 102, 3-(4-chlorophenyl)-N-(cyclopropylmethyl)imidazo[1,2-b]pyridazine-2-carboxamide] were 59.9 nM, 76 nM and 5010 nM.
The corresponding values for `O=C(NC1CC1)c1nc2cccnn2c1-c1cc(F)c(Cl)c(F)c1` [Example 104, 3-(4-chloro-3,5-difluorophenyl)-N-cyclopropylimidazo[1,2-b]pyridazine-2-carboxamide] are under 0.488 nM, 4.69 nM and 145 nM.
